From US20250145637A1, “SULFONAMIDE DERIVATIVE, PREPARATION METHOD THEREFOR AND MEDICAL USE THEREOF” (Jiangsu Hengrui Pharmaceuticals Co. Ltd., priority 2021, published 2025) come the findings set out here.

Each structure is given as a SMILES string.

The target of one assay is human KAT6A (Homo sapiens (Human), UniProt Q92794). The assay can be described thus: KAT6 enzyme activity assay (AlphaScreen method), KAT6A. The settings on record: inhibition of the enzyme human KAT6A. The assay is classed as biochemical. The text has this: Test Example 1: KAT6 Enzyme Activity Assay (AlphaScreen Method)
Sequence of human KAT6A (Q92794 whole entry): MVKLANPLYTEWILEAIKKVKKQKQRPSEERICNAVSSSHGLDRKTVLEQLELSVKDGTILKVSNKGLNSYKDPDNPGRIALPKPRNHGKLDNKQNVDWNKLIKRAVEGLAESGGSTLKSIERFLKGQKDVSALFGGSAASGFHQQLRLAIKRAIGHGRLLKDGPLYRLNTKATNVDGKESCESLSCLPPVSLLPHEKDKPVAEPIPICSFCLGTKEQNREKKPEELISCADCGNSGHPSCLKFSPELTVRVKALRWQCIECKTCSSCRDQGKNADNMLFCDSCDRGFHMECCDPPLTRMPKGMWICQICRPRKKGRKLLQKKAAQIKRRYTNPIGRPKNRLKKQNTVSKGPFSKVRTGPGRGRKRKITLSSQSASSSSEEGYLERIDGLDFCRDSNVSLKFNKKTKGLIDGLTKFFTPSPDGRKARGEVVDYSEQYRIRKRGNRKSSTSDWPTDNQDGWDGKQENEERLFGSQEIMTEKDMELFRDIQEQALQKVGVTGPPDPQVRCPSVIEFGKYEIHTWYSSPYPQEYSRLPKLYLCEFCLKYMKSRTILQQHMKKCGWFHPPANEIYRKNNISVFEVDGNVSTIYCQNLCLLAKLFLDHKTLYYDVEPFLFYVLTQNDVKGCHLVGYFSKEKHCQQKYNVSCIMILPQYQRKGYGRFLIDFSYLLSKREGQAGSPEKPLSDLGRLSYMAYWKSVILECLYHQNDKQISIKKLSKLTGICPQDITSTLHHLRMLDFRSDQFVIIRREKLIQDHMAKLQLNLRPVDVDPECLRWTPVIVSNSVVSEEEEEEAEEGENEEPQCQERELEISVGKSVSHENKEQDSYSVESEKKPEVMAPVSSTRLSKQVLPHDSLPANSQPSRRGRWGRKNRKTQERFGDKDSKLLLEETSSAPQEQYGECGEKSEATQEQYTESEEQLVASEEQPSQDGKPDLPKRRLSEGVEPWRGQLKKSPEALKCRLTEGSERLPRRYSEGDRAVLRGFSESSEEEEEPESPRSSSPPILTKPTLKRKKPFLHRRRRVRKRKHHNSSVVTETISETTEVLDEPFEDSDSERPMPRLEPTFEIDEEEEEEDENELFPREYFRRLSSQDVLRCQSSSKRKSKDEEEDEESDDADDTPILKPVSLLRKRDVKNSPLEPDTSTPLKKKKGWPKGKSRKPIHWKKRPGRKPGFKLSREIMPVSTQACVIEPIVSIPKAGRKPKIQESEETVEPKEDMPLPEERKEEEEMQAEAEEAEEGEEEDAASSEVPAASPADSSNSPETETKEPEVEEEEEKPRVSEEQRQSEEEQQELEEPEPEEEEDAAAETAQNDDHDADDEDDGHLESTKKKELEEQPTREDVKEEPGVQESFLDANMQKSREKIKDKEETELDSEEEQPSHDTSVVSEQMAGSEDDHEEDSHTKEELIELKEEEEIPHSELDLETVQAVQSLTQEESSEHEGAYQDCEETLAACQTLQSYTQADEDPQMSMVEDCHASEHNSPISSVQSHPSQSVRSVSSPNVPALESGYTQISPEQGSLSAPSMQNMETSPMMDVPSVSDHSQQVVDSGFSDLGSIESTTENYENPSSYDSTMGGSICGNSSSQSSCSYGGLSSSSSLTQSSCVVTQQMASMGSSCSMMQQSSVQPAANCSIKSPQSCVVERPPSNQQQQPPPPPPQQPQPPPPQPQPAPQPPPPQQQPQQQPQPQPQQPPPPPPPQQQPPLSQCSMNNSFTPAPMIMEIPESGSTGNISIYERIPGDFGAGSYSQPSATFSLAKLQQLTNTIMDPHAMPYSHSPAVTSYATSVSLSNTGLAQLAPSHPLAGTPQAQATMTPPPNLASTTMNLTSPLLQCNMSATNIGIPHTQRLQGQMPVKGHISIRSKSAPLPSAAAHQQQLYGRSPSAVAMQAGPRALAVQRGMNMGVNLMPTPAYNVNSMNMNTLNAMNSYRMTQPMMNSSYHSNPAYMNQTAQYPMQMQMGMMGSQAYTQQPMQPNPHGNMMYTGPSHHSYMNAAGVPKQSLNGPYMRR
I. Reagents and instrument • 1. KAT6A (customized by Chempartner) • 2. Ovalbumin (Sigma-Aldrich, A5378-5G) • 3. 2 M Tris-HCl solution, pH 7.8, sterile (Sangon, B548140-0500) • 4. 5 M NaCl solution (Sangon, B548121-0100) • 5. EDTA (0.5 M), pH 8.0, RNase-free (Thermofisher, AM9260G) • 6. Tween-20 (Sangon, A100777-0500) • 7. DTT, 1 M (Invitrogen, P2325) • 8. Acetyl coenzyme A (Ac-CoA, CAYMAN, Cat. No. 16160) • 9. Recombinant histone H3.1 biotinylated (human) (Active Motif 31696) • 10. 384-well plate, light gray (Perkin Elmer, Cat. No. 6005350) • 11. Anacardic acid (MCE, Cat. No. HY—N2020) • 12. AlphaScreen streptavidin donor beads, 5 mg (PerkinElmer, 6760002) • 13. AlphaScreen protein A acceptor beads, 5 mg (PerkinElmer, 6760137M) • 14. Acetylated-lysine antibody #9441 (CST 9441S) • 15. PHERA star microplate reader (BMG labtech) • II. Experimental method
a. 1× assay buffer: 100 mM Tris-HCl, pH 7.8; 15 mM NaCl; 1 mM EDTA; 0.01% tween-20; 1 mM DTT; 0.01% m/v ovalbumin.
b. KAT enzyme solution: 1.25 nM (final concentration), prepared in 1× assay buffer.
c. Mixed substrate of Ac-CoA and H3: a mixed substrate of 1000 nM (final concentration) Ac-CoA and 55 nM (final concentration) H3, prepared in 1× assay buffer.
d. Compounds: initial concentration of 100 μM, 3-fold dilution, 10 gradient concentrations. All compound concentrations were diluted 83-fold with 1× assay buffer for later use.
e. Assay reagent: 8 ng/μL (final concentration) AlphaScreen protein A acceptor beads, 8 ng/μL AlphaScreen streptavidin donor beads, 1:1500 diluted acetylated-lysine antibody, and 100 μM anacardic acid; prepared in 1× assay buffer.
(§1) 2. Experimental Procedure
a. The prepared enzyme solution was added to a 384-well plate at 3 μL/well, and 3 μL of 1× assay buffer was added to each well in columns 23 and 24 (Min).
b. 3 μL of compound solution was added to each well, and 3 μL of buffer was added to each Min well; 3 μL of DMSO solution was added to each well in columns 1 and 2 (Max) as controls. The plate was centrifuged, shaken for 2 min, and incubated at room temperature for 15 min.
c. The mixed substrate of Ac-CoA and H3 was added at 6 μL/well, and the plate was centrifuged, shaken for 2 min, and incubated at room temperature for 20 min.
d. The assay reagent was added at 6 μL/well, and the plate was centrifuged, shaken for 2 min, and incubated in the dark at room temperature for 120 min.
e. Plate reading was performed on the microplate reader, and AlphaScreen counts were recorded.
f. Plotting was performed using the Graphpad software, and the IC50 values of the compounds were calculated.

The subject of assay [1] is H3K23 acetylation in U-2 OS cells. Nature of the assay: U2OS cell H3K23 acetylation IF assay (immunofluorescence). The assay is classed as cell-based. The following applies: Homo sapiens; for IC50: 24 h incubation, read-out: H3K23 ac/IC50; for Emax: inhibition of H3K23 acetylation, 24 h, read-out: Maximum inhibition rate/Imax %. The method, then:
Test Example 3: U2OS Cell H3K23 Acetylation IF Assay (Immunofluorescence)
I. Reagents and Instruments
• 1. U-2 OS (ATCC HTB-96) • 2. Recombinant anti-histone H3 (acetyl K23) antibody (Abcam, ab177275) • 3. Goat anti-rabbit IgG (H+L), Superclonal™ recombinant secondary antibody, Alexa Fluor 488 (Thermofisher, A27034) • 4. Hoechst 33342 (Sigma-Aldrich, B2261-25MG) • 5. Assay plate, 96-well, black with clear bottom (Corning, 3603) • 6. Bovine serum albumin (BSA) (Sangon Biotech, A500023-0100) • 7. Methanol (GENERAL-REAGENT, G75851D) • 8. Tween-20 (Sangon, A100777-0500) • 9. Triton X-100 (Solarbio, T8200) • 10. PBS (Shanghai BasalMedia Technologies Co., Ltd., B320KJ) • 11. 20×PBS buffer (Sangon Biotech, B548117-0500) • 12. McCoy's 5A medium (Gibco, 16600082) • 13. 0.25% trypsin-EDTA (1×) (Gibco, 25200-072) • 14. Pen strep (Gibco, 15140-122) • 15. DPBS (1×) (Gibco, 14190-144) • 16. FBS (Gibco, 10091148) • 17. Automatic cell counter (Countstar, IC1000) • 18. Thermostatic incubator (Thermo, 1160) • 19. ImageXpress® Micro Confocal (Molecular Device)
a. Blocking buffer: PBS (Shanghai BasalMedia)+BSA (final concentration of 1%)+Triton X-100 (final concentration of 0.5%).
b. Wash buffer: PBS (20×PBS was diluted to 1×PBS)+Tween-20 (final concentration of 0.1%).
c. Primary antibody solution: Recombinant anti-histone H3 (acetyl K23) antibody was diluted in blocking buffer at a ratio of 1:1000.
d. Secondary antibody solutions: Goat anti-rabbit IgG (H+L), Superclonal™ recombinant secondary antibody, Alexa Fluor 488 was diluted in blocking buffer at a ratio of 1:1000, and Hoechst 33342 was diluted in blocking buffer at a ratio of 1:5000.
e. Compounds: initial concentration of 100 μM, 3-fold dilution, 9 gradient concentrations. All compound concentrations were diluted 500-fold with McCoy's 5A medium for later use.
as §1
2.1. Cell Treatment (Day One)
a. The state of U-2 OS cells was observed under a microscope to make sure that the cell confluence was about 90%.
b. The cell supernatant was discarded. The cells were rinsed with DPBS once, and the DPBS was removed. The cells were digested with a proper amount of trypsin and left to stand at room temperature or 37° C. for 5 min.
c. The digestion was stopped with an equal volume of medium containing 10% FBS, and the cell suspension was collected and centrifuged at 300 g for 3 min. The cells were suspended in a proper amount of fresh medium.
d. The resulting cell suspension was collected and cell counting was performed.
e. The cell suspension was diluted and plated at 9000 cells/50 μL/well.
f. The wells on the periphery were blocked with 100 μL of PBS.
g. The cell culture plates were incubated overnight in a 37° C., 5% carbon dioxide incubator.
2.2. Compound Addition (Day Two)
a. 50 μL of diluted compound was added to the cell supernatant (50 μL/well) in each cell plate.
b. After the addition, the cell plates were incubated in a 37° C., 5% carbon dioxide incubator for 24 h.
2.3. Immunofluorescence Staining and Measurement (Day Three to Day Four)
a. After the 24-hour incubation, the cell plates were removed from the incubator. The medium was discarded, and plates were fixed with pre-cooled methanol at room temperature for 10 min.
b. The fixation buffer was discarded, and the plates were quickly washed with wash buffer 3 times and then slowly washed 3 times (5 min/wash).
c. The wash buffer was discarded, and blocking buffer was added. The plates were incubated at room temperature for 60 min.
d. The blocking buffer was discarded, and the prepared primary antibody solution was added. The plates were incubated overnight at 4° C.
e. The primary antibody solution was discarded, and the prepared secondary antibody solution was added. The plates were incubated at room temperature for 60 min.
f. The secondary antibody solution was discarded, and the plates were quickly washed with wash buffer 3 times and then slowly washed 5 times (5 min/wash).
g. The plates were tested on ImageXpress® Micro Confocal.
h. […]

On human KAT6A, `CCOc1cc(C)ccc1S(=O)(=O)Nc1noc2cc(Cn3cccn3)c3c(c12)OCC3` [Compound 16, N-(4-((1H-pyrazol-1-yl)methyl)-2,3-dihydrobenzofuro[7,6-d]isoxazol-8-yl)-2-ethoxy-4-methylbenzenesulfonamide] yielded an IC50 of 1.9 nM.

For the molecule `COc1ccc(C)cc1S(=O)(=O)Nc1noc2cc(Cn3cccn3)c3c(c12)OCC3` [Compound 18, N-(4-((1H-pyrazol-1-yl)methyl)-2,3-dihydrobenzofuro[7,6-d]isoxazol-8-yl)-2-methoxy-5-methylbenzenesulfonamide], the IC50 against human KAT6A was 12.5 nM. Same read-out and setting: under `COc1cc2c(cc1S(=O)(=O)Nc1noc3cc(Cn4cccn4)c4c(c13)OCC4)OCC2` [Compound 19, N-(4-((1H-pyrazol-1-yl)methyl)-2,3-dihydrobenzofuro[7,6-d]isoxazol-8-yl)-5-methoxy-2,3-dihydrobenzofuran-6-sulfonamide] stands 2.7 nM. Turning to `COc1cc(C)ccc1S(=O)(=O)Nc1noc2cc(Cn3cccn3)c3c(c12)OCC3` [Compound 22, N-(4-((1H-pyrazol-1-yl)methyl)-2,3-dihydrobenzofuro[7,6-d]isoxazol-8-yl)-2-methoxy-4-methylbenzenesulfonamide], in assay [1], the IC50 is 2.9 nM and the Emax was 105%. This molecule displayed an IC50 against human KAT6A of 4.7 nM. On human KAT6A, `COc1cccc(OC)c1S(=O)(=O)Nc1noc2cc(C3CCCO3)c3c(c12)OCC3` (stereo not drawn) [Compound 26, 2,6-dimethoxy-N-(4-(tetrahydrofuran-2-yl)-2,3-dihydrobenzofuro[7,6-d]isoxazol-8-yl)benzenesulfonamide] had an IC50 of 12.2 nM. Consider `COc1cc2c(cc1S(=O)(=O)Nc1noc3cc(Cn4cccn4)c4c(c13)OCC4)CCC2` [Compound 15, N-(4-((1H-pyrazol-1-yl)methyl)-2,3-dihydrobenzofuro[7,6-d]isoxazol-8-yl)-6-methoxy-2,3-dihydro-1H-indene-5-sulfonamide], for which, on human KAT6A, the IC50 was found to be 1.2 nM.

Molecule `O=S(=O)(Nc1noc2cc(Cn3cccn3)c3c(c12)OCCC3)c1cccc2c1OCC2` [Compound 12, N-(5-((1H-pyrazol-1-yl)methyl)-3,4-dihydro-2H-chromeno[8,7-d]isoxazol-9-yl)-2,3-dihydrobenzofuran-7-sulfonamide] came in with an IC50 at human KAT6A of 12.5 nM. In the case of `COc1ccccc1S(=O)(=O)Nc1noc2cc(Cn3cccn3)c3c(c12)OCCO3` [Compound 4, N-(5-((1H-pyrazol-1-yl)methyl)-2,3-dihydro-[1,4]dioxino[2′,3′:5,6]benzo[1,2-d]isoxazol-9-yl)-2-methoxybenzenesulfonamide], the results for the IC50 (in assay [1]; against human KAT6A) were 1.5 nM and 4.2 nM, respectively. Also, the Emax in assay [1] was found to be 106%.

At human KAT6A, `CCc1ccc(S(=O)(=O)Nc2noc3cc(Cn4cccn4)c4c(c23)OCCC4)c(OC)c1` [Compound 13, N-(5-((1H-pyrazol-1-yl)methyl)-3,4-dihydro-2H-chromeno[8,7-d]isoxazol-9-yl)-4-ethyl-2-methoxybenzenesulfonamide] registered an IC50 of 0.3 nM.

Turning to `COc1cc(N(C)C)ccc1S(=O)(=O)Nc1noc2cc(Cn3cccn3)c3c(c12)OCCC3` [Compound 11, N-(5-((1H-pyrazol-1-yl)methyl)-3,4-dihydro-2H-chromeno[8,7-d]isoxazol-9-yl)-4-(dimethylamino)-2-methoxybenzenesulfonamide], the results for the IC50 (in assay [1]; against human KAT6A) were 2.1 nM and 1.6 nM, respectively. In addition, the Emax in assay [1] came out at 103%. `COc1cccc(C)c1S(=O)(=O)Nc1noc2cc(Cn3cccn3)c3c(c12)OCC3` [Compound 17, N-(4-((1H-pyrazol-1-yl)methyl)-2,3-dihydrobenzofuro[7,6-d]isoxazol-8-yl)-2-methoxy-6-methylbenzenesulfonamide]: the IC50 on human KAT6A worked out at 10.5 nM. Still for that read-out and setting: next, `COc1cccc(OC)c1S(=O)(=O)Nc1noc2cc([C@H]3CCCO3)c3c(c12)OCC3` [Compound 26-1, (R)-2,6-dimethoxy-N-(4-(tetrahydrofuran-2-yl)-2,3-dihydrobenzofuro[7,6-d]isoxazol-8-yl)benzenesulfonamide]: 5.2 nM.
